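Protocol summary: plate cells (96-well), add compound at 5 concentrations, incubate 48 h, interpolate endpoints linearly. TGI denotes the concentration required for complete inhibition of growth.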
What was measured:
Test in all cases: NCI tumour cell line growth inhibition, 48 h
A549 NSCLC = system: A549 NSCLC
ACHN renal = system: ACHN renal
CAKI-1 renal = system: CAKI-1 renal
CCRF-CEM leukemia = system: CCRF-CEM leukemia
DLD-1 colon = system: DLD-1 colon
DMS 114 small cell lung = system: DMS 114 small cell lung
DMS 273 small cell lung = system: DMS 273 small cell lung
EKVX NSCLC = system: EKVX NSCLC
HCC-2998 colon = system: HCC-2998 colon
HCT-116 colon = system: HCT-116 colon
HCT-15 colon = system: HCT-15 colon
HL-60(TB) leukemia = system: HL-60(TB) leukemia
HOP-18 NSCLC = system: HOP-18 NSCLC
HOP-62 NSCLC = system: HOP-62 NSCLC
HOP-92 NSCLC = system: HOP-92 NSCLC
HT29 colon = system: HT29 colon
IGROV1 ovarian = system: IGROV1 ovarian
K-562 leukemia = system: K-562 leukemia
KM20L2 colon = system: KM20L2 colon
LOX IMVI melanoma = system: LOX IMVI melanoma
LXFL 529 NSCLC = system: LXFL 529 NSCLC
M14 melanoma = system: M14 melanoma
M19-MEL melanoma = system: M19-MEL melanoma
MALME-3M melanoma = system: MALME-3M melanoma
MOLT-4 leukemia = system: MOLT-4 leukemia
NCI-H226 lung = system: NCI-H226 lung
NCI-H23 lung = system: NCI-H23 lung
NCI-H460 lung = system: NCI-H460 lung
NCI-H522 lung = system: NCI-H522 lung
OVCAR-3 ovarian = system: OVCAR-3 ovarian
OVCAR-5 ovarian = system: OVCAR-5 ovarian
OVCAR-8 ovarian = system: OVCAR-8 ovarian
RPMI-8226 leukemia = system: RPMI-8226 leukemia
RXF 393 renal = system: RXF 393 renal
RXF-631 renal = system: RXF-631 renal
SF-268 CNS = system: SF-268 CNS
SF-295 CNS = system: SF-295 CNS
SF-539 CNS = system: SF-539 CNS
SK-MEL-2 melanoma = system: SK-MEL-2 melanoma
SK-MEL-5 melanoma = system: SK-MEL-5 melanoma
SK-OV-3 ovarian = system: SK-OV-3 ovarian
SN12C renal = system: SN12C renal
SNB-19 CNS = system: SNB-19 CNS
SNB-78 CNS = system: SNB-78 CNS
SW-620 colon = system: SW-620 colon
TK-10 renal = system: TK-10 renal
U251 CNS = system: U251 CNS
UACC-257 melanoma = system: UACC-257 melanoma
UACC-62 melanoma = system: UACC-62 melanoma
UO-31 renal = system: UO-31 renal
XF 498 CNS = system: XF 498 CNS
786-0 renal = system: 786-0 renal
A498 renal = system: A498 renal
COLO 205 colon = system: COLO 205 colon
KM12 colon = system: KM12 colon
OVCAR-4 ovarian = system: OVCAR-4 ovarian
SK-MEL-28 melanoma = system: SK-MEL-28 melanoma
SNB-75 CNS = system: SNB-75 CNS
SR leukemia = system: SR leukemia
BT-549 breast = system: BT-549 breast
DU-145 prostate = system: DU-145 prostate
HS 578T breast = system: HS 578T breast
MCF7 breast = system: MCF7 breast
MDA-MB-231 breast = system: MDA-MB-231 breast
MDA-MB-435 = system: MDA-MB-435
MDA-N = system: MDA-N
NCI/ADR-RES ovarian = system: NCI/ADR-RES ovarian
P388 leukemia = system: P388 leukemia
P388/ADR leukemia = system: P388/ADR leukemia
PC-3 prostate = system: PC-3 prostate
SN12K1 renal = system: SN12K1 renal
T-47D breast = system: T-47D breast

SMILES: CC(C)(C)C1(c2ccc(C3(c4ccccc4)Oc4ccccc4S3)[nH]2)Oc2ccccc2S1 (stereo not drawn)
- TGI (A549 NSCLC): > 100 µM
- TGI (ACHN renal): > 100 µM
- TGI (CAKI-1 renal): > 100 µM
- TGI (CCRF-CEM leukemia): > 100 µM
- TGI (DLD-1 colon): > 100 µM
- TGI (DMS 114 small cell lung): > 100 µM
- TGI (DMS 273 small cell lung): > 100 µM
- TGI (EKVX NSCLC): > 100 µM
- TGI (HCC-2998 colon): > 100 µM
- TGI (HCT-116 colon): > 100 µM
- TGI (HCT-15 colon): > 100 µM
- TGI (HL-60(TB) leukemia): > 100 µM
- TGI (HOP-18 NSCLC): > 100 µM
- TGI (HOP-62 NSCLC): > 100 µM
- TGI (HOP-92 NSCLC): > 100 µM
- TGI (HT29 colon): > 100 µM
- TGI (IGROV1 ovarian): > 100 µM
- TGI (K-562 leukemia): > 100 µM
- TGI (KM20L2 colon): > 100 µM
- TGI (LOX IMVI melanoma): > 100 µM
- TGI (LXFL 529 NSCLC): > 100 µM
- TGI (M14 melanoma): > 100 µM
- TGI (M19-MEL melanoma): > 100 µM
- TGI (MALME-3M melanoma): > 100 µM
- TGI (MOLT-4 leukemia): > 100 µM
- TGI (NCI-H226 lung): > 100 µM
- TGI (NCI-H23 lung): > 100 µM
- TGI (NCI-H460 lung): > 100 µM
- TGI (NCI-H522 lung): > 100 µM
- TGI (OVCAR-3 ovarian): > 100 µM
- TGI (OVCAR-5 ovarian): > 100 µM
- TGI (OVCAR-8 ovarian): > 100 µM
- TGI (RPMI-8226 leukemia): > 100 µM
- TGI (RXF 393 renal): > 100 µM
- TGI (RXF-631 renal): > 100 µM
- TGI (SF-268 CNS): > 100 µM
- TGI (SF-295 CNS): > 100 µM
- TGI (SF-539 CNS): > 100 µM
- TGI (SK-MEL-2 melanoma): > 100 µM
- TGI (SK-MEL-5 melanoma): > 100 µM
- TGI (SK-OV-3 ovarian): > 100 µM
- TGI (SN12C renal): > 100 µM
- TGI (SNB-19 CNS): > 100 µM
- TGI (SNB-78 CNS): > 100 µM
- TGI (SW-620 colon): > 100 µM
- TGI (TK-10 renal): > 100 µM
- TGI (U251 CNS): > 100 µM
- TGI (UACC-257 melanoma): > 100 µM
- TGI (UACC-62 melanoma): > 100 µM
- TGI (UO-31 renal): > 100 µM
- TGI (XF 498 CNS): > 100 µM

SMILES: C=CC1(c2ccccc2Cl)N/C(=C/OCC)CO1 (stereo not drawn)
- TGI (786-0 renal): > 100 µM
- TGI (A498 renal): > 100 µM
- TGI (A549 NSCLC): > 100 µM
- TGI (ACHN renal): > 100 µM
- TGI (CAKI-1 renal): > 100 µM
- TGI (CCRF-CEM leukemia): > 100 µM
- TGI (COLO 205 colon): > 100 µM
- TGI (DLD-1 colon): > 100 µM
- TGI (DMS 114 small cell lung): > 100 µM
- TGI (DMS 273 small cell lung): > 100 µM
- TGI (EKVX NSCLC): > 100 µM
- TGI (HCC-2998 colon): > 100 µM
- TGI (HCT-116 colon): > 100 µM
- TGI (HCT-15 colon): > 100 µM
- TGI (HL-60(TB) leukemia): > 100 µM
- TGI (HOP-18 NSCLC): > 100 µM
- TGI (HOP-62 NSCLC): > 100 µM
- TGI (HOP-92 NSCLC): > 100 µM
- TGI (HT29 colon): > 100 µM
- TGI (IGROV1 ovarian): > 100 µM
- TGI (K-562 leukemia): > 100 µM
- TGI (KM12 colon): > 100 µM
- TGI (KM20L2 colon): > 100 µM
- TGI (LOX IMVI melanoma): 55.3 µM
- TGI (LXFL 529 NSCLC): > 100 µM
- TGI (M14 melanoma): > 100 µM
- TGI (M19-MEL melanoma): > 100 µM
- TGI (MALME-3M melanoma): > 100 µM
- TGI (MOLT-4 leukemia): > 100 µM
- TGI (NCI-H226 lung): > 100 µM
- TGI (NCI-H23 lung): > 100 µM
- TGI (NCI-H460 lung): > 100 µM
- TGI (NCI-H522 lung): > 100 µM
- TGI (OVCAR-3 ovarian): > 100 µM
- TGI (OVCAR-4 ovarian): > 100 µM
- TGI (OVCAR-5 ovarian): > 100 µM
- TGI (OVCAR-8 ovarian): > 100 µM
- TGI (RPMI-8226 leukemia): 65 µM
- TGI (RXF 393 renal): > 100 µM
- TGI (RXF-631 renal): > 100 µM
- TGI (SF-268 CNS): > 100 µM
- TGI (SF-295 CNS): > 100 µM
- TGI (SF-539 CNS): > 100 µM
- TGI (SK-MEL-2 melanoma): > 100 µM
- TGI (SK-MEL-28 melanoma): > 100 µM
- TGI (SK-MEL-5 melanoma): > 100 µM
- TGI (SK-OV-3 ovarian): > 100 µM
- TGI (SN12C renal): > 100 µM
- TGI (SNB-19 CNS): > 100 µM
- TGI (SNB-75 CNS): > 100 µM
- TGI (SNB-78 CNS): > 100 µM
- TGI (SR leukemia): > 100 µM
- TGI (SW-620 colon): 28.4 µM
- TGI (TK-10 renal): > 100 µM
- TGI (U251 CNS): > 100 µM
- TGI (UACC-257 melanoma): > 100 µM
- TGI (UACC-62 melanoma): > 100 µM
- TGI (UO-31 renal): > 100 µM
- TGI (XF 498 CNS): > 100 µM

SMILES: CC(C)[C@](O)(C(=O)OCC1=CC[N+]2([O-])CC[C@@H](O)[C@@H]12)[C@H](C)O (stereo partly drawn)
- TGI (786-0 renal): > 10000 µM
- TGI (A498 renal): > 10000 µM
- TGI (A549 NSCLC): > 10000 µM
- TGI (ACHN renal): > 10000 µM
- TGI (BT-549 breast): > 10000 µM
- TGI (CAKI-1 renal): > 9520 µM
- TGI (CCRF-CEM leukemia): > 10000 µM
- TGI (COLO 205 colon): > 10000 µM
- TGI (DLD-1 colon): > 10000 µM
- TGI (DMS 273 small cell lung): > 10000 µM
- TGI (DU-145 prostate): > 10000 µM
- TGI (EKVX NSCLC): > 10000 µM
- TGI (HCC-2998 colon): > 10000 µM
- TGI (HCT-116 colon): > 10000 µM
- TGI (HCT-15 colon): > 10000 µM
- TGI (HL-60(TB) leukemia): 9860 µM
- TGI (HOP-18 NSCLC): > 10000 µM
- TGI (HOP-62 NSCLC): > 3980 µM
- TGI (HOP-92 NSCLC): > 10000 µM
- TGI (HS 578T breast): > 10000 µM
- TGI (HT29 colon): > 10000 µM
- TGI (IGROV1 ovarian): > 10000 µM
- TGI (K-562 leukemia): > 10000 µM
- TGI (KM12 colon): > 10000 µM
- TGI (KM20L2 colon): > 10000 µM
- TGI (LOX IMVI melanoma): > 10000 µM
- TGI (M14 melanoma): > 10000 µM
- TGI (M19-MEL melanoma): > 10000 µM
- TGI (MALME-3M melanoma): > 10000 µM
- TGI (MCF7 breast): > 10000 µM
- TGI (MDA-MB-231 breast): > 10000 µM
- TGI (MDA-MB-435): > 10000 µM
- TGI (MDA-N): > 10000 µM
- TGI (MOLT-4 leukemia): > 10000 µM
- TGI (NCI-H226 lung): > 10000 µM
- TGI (NCI-H23 lung): > 6000 µM
- TGI (NCI-H460 lung): > 9540 µM
- TGI (NCI-H522 lung): > 10000 µM
- TGI (NCI/ADR-RES ovarian): > 10000 µM
- TGI (OVCAR-3 ovarian): > 10000 µM
- TGI (OVCAR-4 ovarian): > 10000 µM
- TGI (OVCAR-5 ovarian): > 10000 µM
- TGI (OVCAR-8 ovarian): > 7940 µM
- TGI (P388 leukemia): > 10000 µM
- TGI (P388/ADR leukemia): > 10000 µM
- TGI (PC-3 prostate): > 10000 µM
- TGI (RPMI-8226 leukemia): > 10000 µM
- TGI (RXF 393 renal): > 7940 µM
- TGI (SF-268 CNS): > 10000 µM
- TGI (SF-295 CNS): > 10000 µM
- TGI (SF-539 CNS): > 10000 µM
- TGI (SK-MEL-2 melanoma): > 10000 µM
- TGI (SK-MEL-28 melanoma): > 10000 µM
- TGI (SK-MEL-5 melanoma): > 10000 µM
- TGI (SK-OV-3 ovarian): > 10000 µM
- TGI (SN12C renal): > 10000 µM
- TGI (SN12K1 renal): > 10000 µM
- TGI (SNB-19 CNS): > 10000 µM
- TGI (SNB-75 CNS): > 10000 µM
- TGI (SNB-78 CNS): > 10000 µM
- TGI (SR leukemia): > 10000 µM
- TGI (SW-620 colon): > 10000 µM
- TGI (T-47D breast): > 10000 µM
- TGI (TK-10 renal): > 10000 µM
- TGI (U251 CNS): > 10000 µM
- TGI (UACC-257 melanoma): > 10000 µM
- TGI (UACC-62 melanoma): 9920 µM
- TGI (UO-31 renal): > 10000 µM
